According to patent publication EP0275742A1, “5-Hydroxymethyl derivatives of 2-oxazolidinones, their preparation and their therapeutical use” (SYNTHELABO, priority 1986, dated 1988):

Key:
MAO-A = target: T1, MAO-A (Rattus norvegicus, UniProt P21396); assay: MAO-A inhibition in vitro, rat brain homogenate (protocol of DOSTERT P. et coll.); type: biochemical; conditions: 20 min preincubation; [14C] sérotonine 480 µM, KM = 100 µM; whole brain homogenate of male Sprague-Dawley rat, 1 g tissue/16 ml phosphate buffer pH 7,4; Ki calculated from CI 50
T1 construct: un homogénat de cerveau total de rat mâle Sprague-Dawley; from tissue; host or cells: whole brain homogenate of male Sprague-Dawley rat
T1 sequence (P21396 1-526): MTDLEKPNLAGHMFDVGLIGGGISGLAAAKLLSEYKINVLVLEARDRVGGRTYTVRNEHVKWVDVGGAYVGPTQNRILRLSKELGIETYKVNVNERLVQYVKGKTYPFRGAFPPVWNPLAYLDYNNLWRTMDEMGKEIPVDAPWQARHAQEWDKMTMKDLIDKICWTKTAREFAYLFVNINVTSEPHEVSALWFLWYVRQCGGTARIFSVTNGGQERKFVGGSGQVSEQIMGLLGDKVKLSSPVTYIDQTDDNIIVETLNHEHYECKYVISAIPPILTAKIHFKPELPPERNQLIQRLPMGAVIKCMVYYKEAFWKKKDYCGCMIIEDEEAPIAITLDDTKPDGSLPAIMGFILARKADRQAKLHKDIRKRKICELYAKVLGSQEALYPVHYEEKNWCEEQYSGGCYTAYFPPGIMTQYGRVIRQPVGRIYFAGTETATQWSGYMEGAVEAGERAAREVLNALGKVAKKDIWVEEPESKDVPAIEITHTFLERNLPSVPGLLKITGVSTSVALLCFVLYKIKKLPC
Method: (§1) Cette activité-a été mise en évidence par mise en oeuvre du protocole décrit par DOSTERT P. et coll. dans J. Pharm. Pharmacol., 1983, 35, 161-165; ce protocole est basé sur des tests enzymatiques menés avec ou sans préincubation notamment à 37° C pendant 20 minutes et il permet de mesurer in vitro l'effet inhibiteur à l'égard de la MAO-A et de la MAO-B du cerveau de rat.
(§2) Le tableau IV ci-après rassemble les constantes d'inhibition Ki(A) et Ki(B) respectivement des formes A et B de la MAO, obtenues pour un certain nombre de composés selon l'invention en suivant le protocole ci-dessus appliqué à un homogénat de cerveau total de rat mâle Sprague-Dawley, à 1 g de tissu/16 ml de tampon phosphate de pH 7,4.

MAO-B = target: T2, MAO-B (Rattus norvegicus, UniProt P19643); assay: MAO-B inhibition in vitro, rat brain homogenate (protocol of DOSTERT P. et coll.); type: biochemical; conditions: for Ki: 20 min preincubation, [14C] phényléthylamine 12 µM, KM = 6 µM, whole brain homogenate of male Sprague-Dawley rat, 1 g tissue/16 ml phosphate buffer pH 7,4, Ki calculated from CI 50; for Ki (A) / Ki (B): selectivity ratio MAO-A over MAO-B, rat brain homogenate
T2 construct: un homogénat de cerveau total de rat mâle Sprague-Dawley; from tissue; host or cells: whole brain homogenate of male Sprague-Dawley rat
T2 sequence (P19643 1-520): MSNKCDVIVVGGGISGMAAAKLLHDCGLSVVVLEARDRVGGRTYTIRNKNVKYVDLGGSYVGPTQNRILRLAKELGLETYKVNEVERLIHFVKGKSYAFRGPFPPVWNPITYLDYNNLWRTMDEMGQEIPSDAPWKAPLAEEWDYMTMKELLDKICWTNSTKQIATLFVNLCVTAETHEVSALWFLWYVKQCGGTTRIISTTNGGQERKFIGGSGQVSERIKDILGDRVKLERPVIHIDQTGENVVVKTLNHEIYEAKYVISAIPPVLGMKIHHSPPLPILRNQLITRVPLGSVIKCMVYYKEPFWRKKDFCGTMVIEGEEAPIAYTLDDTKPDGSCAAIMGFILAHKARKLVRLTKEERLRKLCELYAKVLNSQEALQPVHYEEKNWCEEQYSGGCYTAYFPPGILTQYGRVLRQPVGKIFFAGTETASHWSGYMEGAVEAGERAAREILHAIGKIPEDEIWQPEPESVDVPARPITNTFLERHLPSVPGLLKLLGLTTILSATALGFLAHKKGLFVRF
Method: as §1, §2

Row | Ki (MAO-A) [nM] | Ki (MAO-B) [nM] | Ki (A) / Ki (B) (MAO-B) | Compound
1 | 10300 | 40 | 259 | C[C@@H](O)[C@H]1CN(c2ccc(OCC3CCCCC3)cc2)C(=O)O1 [compound 200443]
2 | 6000 | 168 | 36 | CC(C)CCOc1ccc(N2C[C@H]([C@@H](C)O)OC2=O)cc1 [compound 200497]
3 | 9000 | 14 | 634 | C[C@@H](O)[C@H]1CN(c2ccc(OCc3ccc(F)c(Cl)c3)cc2)C(=O)O1 [compound 200498]
4 | > 1000 | 1600 | > 0,6 | C[C@H](O)[C@@H]1CN(c2ccc(OCc3cccc(Cl)c3)cc2)C(=O)O1 [compound 300872, [(chloro-3 benzyloxy)-4 phényl]-3 (hydroxy-1 étant)-5 oxazolidinone-2]
5 | > 17200 | 27 | >640 | C[C@@H](O)[C@H]1CN(c2ccc(OCc3cccc(Cl)c3)cc2)C(=O)O1 [compound 300873, [(chloro-3 benzyloxy)-4 phényl)-3 (hydroxy-1 éthyl)-5 oxazolidinone-2]
6 | 2260 | 343 | 7 | [(chloro-3 benzyloxy)-4 phényl]-3 (hydroxy-1 éthyl)-5 oxazolidinone-2 [compound 340177]
7 | 476 | 100 | 5 | [(chloro-3 benzyloxy)-4-phenyl]-3 (hydroxy-1 éthyl)-5 oxazolidinone-2 [compound 340176]
